Source: article PMC9413144, “Similar 5F-APINACA Metabolism between CD-1 Mouse and Human Liver Microsomes Involves Different P450 Cytochromes” (Metabolites, 2022)

Columns and labels:
[1] = tested on: pooled human liver microsomes (HLM150); experiment: Steady-state kinetics for 5F-APINACA metabolism by pooled human liver microsomes; format: in vitro ADME
Procedure: (§1) The in vitro 5F-APINACA analyses relied on reactions with human liver microsomes 150 (HLM150) as a model for the average adult human liver and CD-1 mouse liver microsomes as the standard for SCB studies. In a 96-half-well microplate, reaction conditions included human or mouse liver microsomes in 100 mM potassium phosphate buffer pH 7.4, 0.1% methanol (co-solvent), and 5F-APINACA concentrations ranging from 0 to 250 µM. The microplates were preincubated for 15 min at 37 °C with shaking at 350 rpm using a BMG Labtech THERMOstar incubator (Ortenberg, Germany). The addition of an NADPH-regenerating system (4 U/mL glucose-6-phosphate dehydrogenase, 12 mM glucose 6-phosphate, 12 mM MgCl2, 4 mM NADP^+) initiated the reaction. Reactions were quenched by adding an equal volume of ice-cold acetonitrile containing an internal standard (2 μM acenocoumarol final). Samples were chilled on ice for 10 min to optimize precipitation of proteins in phosphate buffer. After 3500 rpm centrifugation at 4 °C for 15 min using a Sorvall ST 16R centrifuge (Thermo Scientific; Waltham, MA, USA), the supernatant was transferred to HPLC vials for HPLC analyses. Standards for metabolite quantifications were prepared with human or mouse liver microsomes in 100 mM potassium phosphate buffer pH 7.4, 0.1% methanol (co-solvent), and 5OH-APINACA concentrations ranging from 0 to 15 µM. The microplates were preincubated for 15 min at 37 °C with shaking at 350 rpm. Reactions were initiated upon addition of the NADPH-regenerating system or 100 mM potassium phosphate as a negative control. For kinetic studies, initial control experiments were carried out to determine the lowest protein concentration and optimal reaction time within the linear response range for all observed metabolites reflecting steady-state conditions. Each set of steady-state reactions were performed at least in triplicate and replicated two times at a minimum. The composition of reactions was determined by liquid chromatographic analysis involving detection of analytes via UV/visible absorbance and mass spectroscopy (Section 2.5).
(§2) We employed explicit equations and numerical methods to model kinetic profiles. In the first case, metabolite levels were used to calculate initial reaction rates for plotting against substrate concentration with GraphPad Prism 9.2 from GraphPad Software, Inc. (San Diego, CA, USA). […] For the numerical methods, ordinary differential equations (ODEs) describing single-substrate (ES) and multi-substrate (ESS) binding kinetics were initially used to fit the models to the primary metabolite formation datasets. The AICc was used to determine the most appropriate model for the same dataset. Predicted parameter estimates from the most appropriate model were then used as initial parameter estimates for a variety of enzyme–substrate–sequential metabolism (ESP1P2P3) models. Schemes included fast- and slow-release rates of metabolite P2 from the enzyme site, either after the first binding event, the second binding event, or both events. A final best-fit model was selected based on AICc values, weighted residuals, and parameter estimate errors. For comparison of all multi-substrate-sequential metabolism models, including the final integrated model, all metabolite data were used simultaneously for model fitting. All association rate constants were fixed at 270 μM^−1 min^−1. When any rate constant within the model had to be held constant, a sensitivity analysis was performed over a range of values to ensure the validity of the results. Based on preliminary model fitting attempts, consistent enzyme kinetic schemes were developed for fitting to both human and CD-1 mouse liver microsomal reaction datasets. Mathematica version 12.3 (Wolfram Research, Champaign, IL, USA) was used for model fitting. The ODEs were numerically solved with NDSolve to provide interpolated functions of each enzyme species. […]

[2] = tested on: CD-1 mouse liver microsomes; experiment: Steady-state kinetics for 5F-APINACA metabolism by CD-1 mouse liver microsomes; format: in vitro ADME
Procedure: as §1, §2

[3] = tested on: human CYPs in human liver microsomes; experiment: Chemical inhibitor phenotyping of 5F-APINACA reactions, human liver microsomes; format: in vitro ADME; conditions: 25 µM 5F-APINACA; for effect of inhibitor on formation of 5F-APINACA metabolites: 0.1 mg/mL HLM, 1000 µM ABT, 1 µM ketoconazole
Procedure: (§3) Inhibitor phenotyping experiments were carried out to qualitatively identify probable P450 isozymes catalyzing 5F-APINACA metabolic pathways present in our mouse and human liver microsome studies. Reactions contained 0.1 mg/mL protein (MLM or HLM), 25 µM 5F-APINACA, specific CYP inhibitors, 0.25% methanol, 1% acetonitrile, 1.0 mM NADPH-regenerating system, and 100 mM phosphate buffer, pH 7.4. […] For each experiment, the following were included as final concentrations: 10 µM furafylline for CYP1A2, 2 µM tranylcypromine (TCP) for CYP2A6, 3 µM ticlopidine (TIC) for CYP2B6, 16 µM montelukast (MTK) for CYP2C8, 10 µM sulfaphenazole (SPA) for CYP2C9, 16 µM (+)-N-3-benzylnirvanol (NBZ) for CYP2C19, 2 µM quinidine (QND) for CYP2D6, 30 µM 4-methylpyrazole (4MP) for CYP2E1, 1 µM ketoconazole (KCZ) for CYP3A4, and 1000 µM ABT for all CYPs. Each inhibitor stock solution (except FUR) was prepared in potassium phosphate buffer pH 7.4 with 1% acetonitrile (final) as a co-solvent. After a preincubation period of 15 min with shaking, the reactions were initiated with the addition of a NADPH-regenerating system and shaken. For FUR, the inhibitor was prepared in methanol and a microsomal reaction was carried out at 10 µM for 10 min prior to addition of 5F-APINACA. After 30 min, all reactions were quenched, processed, and analyzed by HPLC as previously described. The resultant values were normalized to reaction rates observed in absence of inhibitors to yield a percent inhibition value.
Sample reactions were analyzed to quantitate metabolites by absorbance. Analytes were separated on a Waters XBridge BEH C18 3.5 μM column (4.6 mm × 100 mm) using an Agilent 1100 series HPLC instrument equipped with a VWD detector (280 nm). The mobile phase consisted of solvent A (10% solvent B, 90% water) and solvent B (0.1% formic acid/acetonitrile). A gradient method started at 80% solvent A for the first minute, then decreased to 70% for the next 6 min. […] Parent drug and metabolite responses were normalized to the internal standard acenocoumarol and quantitated using a standard curve generated with 5OH-APINACA. The absorbance response corresponds to the indazole ring, which remained unmodified in these reactions, so that the relative absorbance response for all analytes were approximately the same, making inference for quantitation purposes possible.
(§4) Various statistical approaches were employed among the experimental studies to identify the most likely models for explaining the data or establish the significance of the findings. For the explicit kinetic models, the best-fit kinetic model and corresponding constants were determined using the extra sum-of-squares F test. […]

[4] = tested on: mouse Cyps in CD-1 mouse liver microsomes; experiment: Chemical inhibitor phenotyping of 5F-APINACA reactions, CD-1 mouse liver microsomes; format: in vitro ADME; conditions: 25 µM 5F-APINACA
Procedure: as §3, with “For FUR, the inhibitor was prepared in methanol and a microsomal reaction was carried out at 10 µM for 10 min prior to addition of 5F-APINACA.” left out, “The resultant values were normalized to reaction rates observed in absence of inhibitors to yield a percent inhibition value.” left out
Sample reactions were analyzed to quantitate metabolites by absorbance. […] Parent drug and metabolite responses were normalized to the internal standard acenocoumarol and quantitated using a standard curve generated with 5OH-APINACA. The absorbance response corresponds to the indazole ring, which remained unmodified in these reactions, so that the relative absorbance response for all analytes were approximately the same, making inference for quantitation purposes possible.
as §4

mice = tested on: mice; design: method as in PMID 30420360, PMID 32413436; conditions: with 1-aminobenzotriazole (ABT); cited from earlier work
[5] = global fit to differential rate equations, calculated from micro-rate constants, parentheses standard error
[6] = global fit to differential rate equations, parentheses standard error
[7] = global fit to differential rate equations, second substrate binding (ESS), parentheses standard error
[8] = formation of the metabolite from 5F-APINACA, parentheses 95% confidence interval
[9] = Combined adamantyl hydroxylation pathway, parentheses 95% confidence interval

O=C(NC12CC3CC(CC(C3)C1)C2)c1nn(CCCCCO)c2ccccc12 [5OH-APINACA]
Vmax ([1]; formation of the metabolite from 5F-APINACA, 0.1 mg/mL protein, parentheses 95% confidence interval): 465 (446–485) pmol min^−1 mg protein^−1 | Km1 [1, 5]: ((k2 + k3 + k4)/k1) 5.69 (0.35) µM | kcat1/Km1 [1, 6]: 0.193 (0.015) mL min^−1 nmol^−1 | kcat1 ([1]; global fit to differential rate equations, rates normalized to total CYP (0.38 μM), parentheses standard error): k3 1.10 (0.35) min^−1 | Km2 [1, 7]: ((k6 + k7 + k8)/k5) 181 (10) µM | kcat2 [1, 7]: k7 1.23 (0.1) min^−1 | kcat2/Km2 [1, 7]: 0.0065 (0.0013) mL min^−1 nmol^−1 | Vmax [2, 8]: 690 (650–730) pmol min^−1 mg protein^−1 | h (Hill coefficient) [2, 8]: 1.4 (1.0–1.8) | Km1 [2, 5]: ((k2 + k3 + k4)/k1) 3.75 (0.21) µM | kcat1/Km1 [2, 6]: 0.238 (0.017) mL min^−1 nmol^−1 | kcat1 ([2]; global fit to differential rate equations, rates normalized to total CYP (0.67 μM), parentheses standard error): k3 0.89 (0.04) min^−1 | Km2 [2, 7]: ((k6 + k7 + k8)/k5) 122 (6) µM | kcat2 [2, 7]: k7 1.17 (0.05) min^−1 | kcat2/Km2 [2, 7]: 0.0096 (0.0006) mL min^−1 nmol^−1

Nn1nnc2ccccc21 [ABT, 1-aminobenzotriazole, reference compound]
effect of inhibitor on formation of 5F-APINACA metabolites [3]: completely blocked the formation of all metabolites

CC(=O)N1CCN(c2ccc(OCC3COC(Cn4ccnc4)(c4ccc(Cl)cc4Cl)O3)cc2)CC1 (centres unmarked) [ketoconazole, reference compound]
effect of inhibitor on formation of 5F-APINACA metabolites [3]: inhibition of these pathways

N-(1-adamantyl)-1-(5-pentyl)-1H-indazole-3-carboxamide [5F-APINACA]
Ki (substrate inhibition) [1, 9]: 300 (150–790) µM | Km [1, 9]: 3.3 µM | Vmax [1, 9]: 400 (330–510) pmol min^−1 mg protein^−1 | Ki (substrate inhibition) [2, 9]: 220 (74–1300) µM | Vmax [2, 9]: 465 (330–730) pmol min^−1 mg protein^−1 | Km ([2]; Combined adamantyl hydroxylation pathway, parentheses 95% confidence interval, read-out: Km or Kh): 3.8 µM | dominant isozyme for both pathways ([3]; chemical inhibitor phenotyping): CYP3A4 | isozymes with minor contributions to metabolism ([3]; chemical inhibitor phenotyping): CYP2C8, 2C19, and 2D6 | contribution of CYPs to metabolism ([4]; CD-1 microsomes): sole role of CYPs | dominant isozyme carrying out metabolic reactions ([4]; human CYP inhibitors): Cyp3a11 | other dominant contributors to adamantyl hydroxylation, but minor contributors to oxidative defluorination ([4]; implicated by inhibitor for CYP2C19): Cyp2c37, Cyp2c50, and Cyp2c54 | hypothermia in mice on suppression of metabolism by pan-CYP inhibitor ABT (mice): increased hypothermia
